In ChEMBL document CHEMBL4340571, “Investigation of flexibility of neuraminidase 150-loop using tamiflu derivatives in influenza A viruses H1N1 and H5N1” (Bioorg Med Chem, 2019):

What was measured:
[1] = Inhibition of Influenza A virus (A/California/07/2009(H1N1)) Neuraminidase N1 at pH 7.4 by DIANA assay
[2] = Selectivity index, ratio of Ki for inhibition of Influenza A virus (A/California/07/2009(H1N1)) Neuraminidase N1 by DIANA assay to Ki for inhibition of influenza A virus chicken/Nakorn- Patom/Thailand/CU-K2-2004 Neuraminidase N1 by DIANA assay
[3] = Inhibition of Influenza A virus (A/California/07/2009(H1N1)) Neuraminidase N1 at pH 6.15 using 4-MUNANA substrate incubated for 20 mins by fluorometric assay

| SMILES | Ki [1] | Ratio Ki [2] | Ki [3] |
| --- | --- | --- | --- |
| CCC(CC)O[C@@H]1C=C(C(=O)O)C[C@H](n2cc(CNc3ccccc3C(N)=O)nn2)[C@H]1NC(C)=O | 13 µM | 2 to 4 | – |
| CCC(CC)O[C@@H]1C=C(C(=O)O)C[C@H](NCc2cn(CC(=O)NC)nn2)[C@H]1NC(C)=O | 1.2 µM | – | 0.87 µM |
| CCC(CC)O[C@@H]1C=C(C(=O)O)C[C@H](N=[N+]=[N-])[C@H]1NC(C)=O | – | – | 0.91 µM |
| CCC(CC)O[C@@H]1C=C(C(=O)O)C[C@H](NCc2cn(CCO)nn2)[C@H]1NC(C)=O | 0.75 µM | – | 0.65 µM |
| CCC(CC)O[C@@H]1C=C(C(=O)O)C[C@H](NCc2cn(CC(=O)O)nn2)[C@H]1NC(C)=O | 2.8 µM | – | – |
| CCC(CC)O[C@@H]1C=C(C(=O)O)C[C@H](n2cc(CNc3ccc(NC(C)=O)cc3)nn2)[C@H]1NC(C)=O | 9.1 µM | 2 to 4 | – |
| CCOC(=O)C1=C[C@@H](OC(CC)CC)[C@H](NC(C)=O)[C@@H](N)C1 [OSELTAMIVIR PHOSPHATE] | 2 µM | – | – |
| CCC(CC)O[C@@H]1C=C(C(=O)O)C[C@H](n2cc(CN(C)c3ccc(OC)cc3)nn2)[C@H]1NC(C)=O | 19 µM | 2 to 4 | – |
| CCC(CC)O[C@@H]1C=C(C(=O)O)C[C@H](NCc2cn(CCN3CCS(=O)(=O)CC3)nn2)[C@H]1NC(C)=O | 12 µM | – | – |
| CCC(CC)O[C@@H]1C=C(C(=O)O)C[C@H](n2cc(CO)nn2)[C@H]1NC(C)=O | 12 µM | 2 to 4 | 0.47 µM |
| CCC(CC)O[C@@H]1C=C(C(=O)O)C[C@H](n2cc(CNc3ccc(C(N)=O)c(C(F)(F)F)c3)nn2)[C@H]1NC(C)=O | 14 µM | 2 to 4 | – |
| CCC(CC)O[C@H]1CC(C(=O)O)=C[C@@H](n2cc(CN3CCS(=O)(=O)CC3)nn2)[C@@H]1NC(C)=O | 340 µM | 2 to 4 | – |
| CCC(CC)O[C@@H]1C=C(C(=O)O)C[C@H](n2cc(CNc3ccccc3)nn2)[C@H]1NC(C)=O | 19 µM | 2 to 4 | – |
| CCC(CC)O[C@@H]1C=C(C(=O)O)C[C@H](NCc2cn(CC(C)(CO)CO)nn2)[C@H]1NC(C)=O | 0.89 µM | – | – |
| CCC(CC)O[C@@H]1C=C(C(=O)O)C[C@H](n2cc(CNc3cccc(C(F)(F)F)c3)nn2)[C@H]1NC(C)=O | 4.2 µM | 2 to 4 | 0.47 µM |
| CCC(CC)O[C@@H]1C=C(C(=O)O)C[C@H](n2cc(CNc3cc(F)ccc3OC)nn2)[C@H]1NC(C)=O | 22 µM | 2 to 4 | – |
| CCC(CC)O[C@@H]1C=C(C(=O)O)C[C@H](N)[C@H]1NC(C)=O [OSELTAMIVIR CARBOXYLATE] | 0.031 µM | – | 0.024 µM |
| CCC(CC)O[C@@H]1C=C(C(=O)O)C[C@H](n2cc(-c3ccsc3)nn2)[C@H]1NC(C)=O | 16 µM | 2 to 4 | – |
| CCC(CC)O[C@@H]1C=C(C(=O)O)C[C@H](NCc2cn(CC(=O)N(C)C)nn2)[C@H]1NC(C)=O | 5.9 µM | – | – |
| CCC(CC)O[C@@H]1C=C(C(=O)O)C[C@H](n2cc(C[C@@]3(C(=O)O)CCCN3)nn2)[C@H]1NC(C)=O | 98 µM | 2 to 4 | – |
| CCC(CC)O[C@@H]1C=C(C(=O)O)C[C@H](n2cc(C[C@H](N)C(=O)O)nn2)[C@H]1NC(C)=O | 64 µM | 2 to 4 | – |
| CCC(CC)O[C@@H]1C=C(C(=O)O)C[C@H](n2cc(-c3cccs3)nn2)[C@H]1NC(C)=O | 20 µM | 2 to 4 | – |
| CCC(CC)O[C@@H]1C=C(C(=O)O)C[C@H](n2cc(COCC(C)(CO)CO)nn2)[C@H]1NC(C)=O | 180 µM | 2 to 4 | – |
